Earlier results, collected in patent publication US10568966B2, “Formulation for topical wound treatment” (AHMET KILIC, priority 2014, dated 2020).

Experiments:
[1] = CLP-Regulation (EC) No 1272/2008

Compound | LD50 Acute oral (Rat) | GHS Classification [1]
C=CCCCCCCCCC(=O)NCCC[N+](C)(C)CC(=O)[O-] [Rewoteric ® AM B U 185, Undecylenamidopropyl Betaine] | >2.000 mg/kg | 
Lauramidopropyl betaine [CRODATERIC ™ CAB 30-LQ-(TH)] | >4.900 mg/kg | 
Cocamidopropyl Betaine [CRODATERIC ™ CAB 30-LQ-(RB)] |  | Eye Irrit. 2; H319
